Experimental data from publication PMC6271273, “Chemo-Enzymatic Synthesis of Silybin and 2,3-Dehydrosilybin Dimers” (Molecules, 2014).
Where “and” joins values, the source holds several entries; their conditions need not be identical. Equal values may be shown once. Marks after values point to notes of the source that are not given here.

Key:
[1] = system: mouse fibroblasts (BALB/c 3T3); assay: Cytotoxicity, MTT test, BALB/c 3T3; assay type: cell-based; settings: BALB/c3T3, 24 h incubation, read-out: IC50 viability (MTT-reducing ability) BALB/c 3T3
Description: (§1) All the cells were cultured in a humidified atmosphere with 5% (v/v) CO2 at 37 °C and subcultured before conﬂuence. Human Umbilical Vein Endothelial Cells (HUVEC) were isolated from umbilical cords of healthy non-smoker women (18–35 years) as described previously, cultivated in gelatin-coated flasks in EGM and used in passages 2–6. Primary Normal human Adult epidermal Keratinocytes (NAK) were isolated from normal skin obtained from excessive tissue removed during abdominoplasty or mammoplasty of healthy adult patients as described in [36, 50], cultivated in EpiLife medium with the addition of HKGS. Mouse fibroblasts (BALB/c 3T3 cells) were purchased from the European Collection of Cell Cultures (ECACC, Salisbury, UK) and were grown in DMEM supplemented with heat-inactivated FCS (5%, v/v) and newborn FCS, streptomycin […] and glutamine (4 mM). Hepatocyte carcinoma HepG2 cells (No. 85011430, ECACC) were cultured at 37 °C in DMEM supplemented with 2 mM L-glutamine, 1% non-essential amino acids, 100 U/mL penicillin, […] and 10% fetal bovine serum (Invitrogen, Carlsbad, CA, USA).
(§2) The cells were plated into 96-well cell culture plates and grown to near confluence. The tested compounds were placed in the respective fresh medium in serial dilutions (100 µL/well) and incubated with the cells for 24 h. After incubation, the medium was removed, the cells were washed with PBS, fresh medium containing 1 mg/mL of MTT was added and the plates were incubated for a further 3 h (37 °C). The resulting formazan was dissolved in 50 µL of 1% NH3 in DMSO, absorbance was read at 540 nm and IC50 values were obtained graphically from the dependence of cell viability on the concentration of the tested compound.

[2] = DPPH radical scavenging assay; assay type: biochemical; settings: for IC50: 20 µM DPPH, 30 min; for DPPH [% of inhibition]: 33 µM test compound, n = 4, absorbance at 517 nm after 30 min
Description: Antiradical activity was evaluated spectrophotometrically as the ability of the tested substances to reduce the 1,1-diphenyl-2-picrylhydrazyl (DPPH) radical as described previously with minor modifications. Briefly, a solution of the tested substance (10 µL, final concentration 0–540 µM) were mixed with a freshly prepared methanolic DPPH solution (290 µL, final concentration 20 µM) in a microtiter plate well. After 30 min, absorbance at 517 nm was measured, percentages of inhibition were calculated using the negative control and for selected compounds the IC50 values were obtained from the inhibition curves.

[3] = Cytotoxicity, MTT test, range over all cells other than NAK; assay type: cell-based; settings: human (HUVEC, HepG2) and mouse (BALB/c 3T3), all cells used other than NAK (HUVEC, BALB/c 3T3, HepG2), read-out: Cytotoxicity IC50, range over cell types
Description: as §1, §2

[4] = Square wave voltammetry (in situ / ex situ) at pyrolytic graphite electrode; assay type: physicochemical; settings: for Oxidation potential Ep1 / Oxidation potential Ep2: SWV, vs. Ag/AgCl/3 M KCl, pH 7.4, n = 3; for Oxidation potential Ep1: ascribed to oxidation of C-20 OH; for Oxidation potential Ep2: oxidation of resorcinol moiety (ring A); for Adsorption onto the electrode: ex situ (adsorptive transfer) SWV, open circuit potential
Description: The monomeric flavonolignans and their dimers were analyzed using in situ voltammetry with the working electrode (PGE: pyrolytic graphite electrode) dipped in the supporting electrolyte containing the analytes and/or ex situ voltammetric analysis (adsorptive transfer, AdT technique). For this purpose, the PGE was first dipped into a 5 µL aliquot of the studied sample. After an accumulation period (30 s), the electrode was washed with deionized water and placed in an electrochemical cell containing pure supporting electrolyte. Square-wave voltammetry (SWV) and cyclic voltammetry (CV) were performed at room temperature with a µAutolab III analyzer (EcoChemie, Utrecht, The Netherlands) in a three-electrode setup (Ag/AgCl 3M KCl electrode as a reference and a platinum wire as the auxiliary electrode). SWV parameters: frequency: 200 Hz, from 0 V to +1.5 V, concentration of tested compounds (50 µM), supporting electrolyte: Britton-Robinson buffer, pH 7.4. The flavonolignans analyzed were dissolved in methanol as a stock solution of 1 mg mL^−1 (stored in a fridge in the dark), and diluted with the supporting electrolyte and/or 0.2 M acetate buffer (pH 5) for in situ and/or ex situ voltammetry. Ex situ a.c. voltammetry (out-of-phase) was carried out with a hanging mercury drop electrode (HMDE) according to the previously published paper. In this case, the flavonolignans (50 µM) were adsorbed from 0.2 M acetate buffer (pH 5) for 30 s. For current responses and potentials (Ep), the standard deviations (S.D.) were less than ±3.55% and ±3 mV for all experiments, respectively.

HepG2 cells = assay: Cytotoxicity, MTT test, HepG2; assay type: cell-based; settings: Homo sapiens, 24 h incubation, read-out: IC50 viability (MTT-reducing ability) HepG2
Description: as §1, §2

rat liver microsomes = assay: Inhibition of microsomal lipid peroxidation induced by tert-butyl hydroperoxide (TBARS); assay type: biochemical; settings: for IC50: rat liver microsomes, 1 mM tert-butyl hydroperoxide, TBARS
Description: Microsomes were prepared from rat liver homogenate as described previously and resuspended in 50 mM Tris-HCl buffer with 100 mM KCl and 0.1 mM EDTA (pH 7.4). The protein concentration in the stock microsomal suspension was determined using the Bradford method to be typically ca 30 mg protein/mL. This stock suspension was stored at −80 °C and diluted to 0.625 mg protein/mL using PBS before use. 0.4 mL of the diluted microsomal suspension was then mixed with the compounds tested (final concentration 10–200 µM in 0.01 mL DMSO) and incubated for 10 min at 37 °C. tert-Butyl hydroperoxide (0.09 mL in PBS; final concentration 1 mM) was then added and the mixture was incubated at 37 °C for 30 min. The products of lipid peroxidation were determined as thiobarbituric acid reactive substances (TBARS): 0.7 mL of […] were added, the mixture was heated (90 °C; 30 min), cooled, centrifuged (10 min; 10,000 rpm; 4 °C) and the absorbance of the supernatant at 535 nm measured. The activity was calculated as the concentration of the tested compound that inhibited the color reaction with thiobarbiturate (without the tested compound) by 50% (IC50).

[5] = system: normal human adult epidermal keratinocytes (NAK); assay: Cytotoxicity, MTT test, NAK; assay type: cell-based; settings: Keratinocyte, 24 h incubation, read-out: IC50 viability (MTT-reducing ability) NAK
Description: as §1, §2

[6] = system: human umbilical vein endothelial cells (HUVEC); assay: Cytotoxicity, MTT test, HUVEC; assay type: cell-based; settings: 24 h incubation, read-out: IC50 viability (MTT-reducing ability) HUVEC
Description: as §1, §2

| Structure (SMILES) | IC50 [1] [µM] | IC50 [2] [µM] | DPPH [% of inhibition] [2] | IC50 at 24 h [3] [µM] | Oxidation potential Ep1 [4] [V] | Oxidation potential Ep2 [4] [V] | Adsorption onto the electrode [4] | IC50 (HepG2 cells) [µM] | IC50 (rat liver microsomes) [µM] | IC50 [5] [µM] | IC50 [6] [µM] | DPPH [% of inhibition] ([2]; 33 µM) | Activity relative to the parent molecule 1a, microsomal lipid peroxidation (rat liver microsomes; stated jointly for DPPH scavenging and microsomal lipid peroxidation tests) |
| --- | --- | --- | --- | --- | --- | --- | --- | --- | --- | --- | --- | --- | --- |
| COc1cc(C2Oc3cc(-c4oc5cc(O)cc(O)c5c(=O)c4O)ccc3OC2COC(=O)CCCCCCCCCCC(=O)OCC2Oc3ccc(-c4oc5cc(O)cc(O)c5c(=O)c4O)cc3OC2c2ccc(O)c(OC)c2)ccc1O (centres unmarked) [Compound 7, bis((3-(4-Hydroxy-3-methoxyphenyl)-6-(3,5,7-trihydroxy-4-oxo-4H-chromen-2-yl)-2,3-dihydrobenzo-[b][1,4]dioxin-2-yl)methyl) dodecanedioate] | 161 ± 9 | 29 ± 0.7 | 33.4 ± 3.1 ^c % | 99 to 173 | 0.57 | 0.99 | strictly limited and practically impossible | 172 ± 11.6 | 59.2 ± 5.9 | > 200 | 98.4 ± 10.6 |  |  |
| COc1cc([C@H]2Oc3cc([C@H]4Oc5cc(O)cc(O)c5C(=O)[C@@H]4O)ccc3O[C@@H]2CO)ccc1O [Compound 1a, silybin A] | 131 ± 8 | 225 ± 9.4 | 6.6 ± 1.7 ^a % | 60 to 166 |  |  |  | 165 ± 8.1 | 53.7 ± 6.1 | > 200 | 57.8 ± 3.6 |  |  |
| COc1cc(C2Oc3cc(-c4oc5cc(O)cc(O)c5c(=O)c4O)ccc3OC2CO)ccc1O (centres unmarked) [Compound 6, 2,3-Dehydrosilybin] | 11.9 ± 3 | 6.43 ± 0.3 |  | 12 to 59 | 0.54 | 0.92 |  | 58.4 ± 9 | 14.5 ± 0.73 | > 200 | 20.9 ± 4.6 | 83% and 82.9 ± 0.2 ^b % |  |
| COc1cc(C2Oc3cc([C@H]4Oc5cc(OCc6cccc(COc7cc(O)c8c(c7)O[C@H](c7ccc9c(c7)OC(c7ccc(O)c(OC)c7)C(CO)O9)[C@@H](O)C8=O)c6)cc(O)c5C(=O)[C@@H]4O)ccc3OC2CO)ccc1O (stereo partly drawn) [Compound 11, (2R,2'R,3R,3'R)-7,7'-((1,3-Phenylenebis(methylene))bis(oxy))bis(3,5-dihydroxy-2-(3-(4-hydroxy-3-methoxyphenyl)-2-(hydroxymethyl)-2,3-dihydrobenzo[b][1,4]dioxin-6-yl)chroman-4-one)] |  |  | 10.7 ± 3.1 ^a % |  | 0.52 | 0.87 |  |  |  |  |  |  |  |
| COc1cc(C2Oc3cc([C@H]4Oc5cc(OCc6ccc(COc7cc(O)c8c(c7)O[C@H](c7ccc9c(c7)OC(c7ccc(O)c(OC)c7)C(CO)O9)[C@@H](O)C8=O)cc6)cc(O)c5C(=O)[C@@H]4O)ccc3OC2CO)ccc1O (stereo partly drawn) [Compound 10, (2R,2'R,3R,3'R)-7,7'-((1,4-Phenylenebis(methylene))bis(oxy))bis(3,5-dihydroxy-2-(3-(4-hydroxy-3-methoxyphenyl)-2-(hydroxymethyl)-2,3-dihydrobenzo[b][1,4]dioxin-6-yl)chroman-4-one)] |  |  | 8.1 ± 3.4 ^a % |  | 0.56 | 0.80 |  |  |  |  |  |  |  |
| COc1cc([C@@H]2Oc3cc([C@H]4Oc5cc(OCc6ccc(COc7cc(O)c8c(c7)O[C@H](c7ccc9c(c7)O[C@@H](c7ccc(O)c(OC)c7)[C@H](CO)O9)[C@@H](O)C8=O)cc6)cc(O)c5C(=O)[C@@H]4O)ccc3O[C@H]2CO)ccc1O [Compound 9, (2R,2'R,3R,3'R)-7,7'-((1,4-Phenylenebis(methylene))bis(oxy))bis(3,5-dihydroxy-2-((2S,3S)-3-(4-hydroxy-3-methoxyphenyl)-2-(hydroxymethyl)-2,3-dihydrobenzo[b][1,4]dioxin-6-yl)chroman-4-one)] |  |  | 8.9 ± 4.0 ^a % |  | 0.57 | 0.83 |  |  |  |  |  |  |  |
| COc1cc([C@H]2Oc3cc([C@H]4Oc5cc(O)cc(O)c5C(=O)[C@@H]4O)ccc3O[C@@H]2COC(=O)CCCCCCCCCCC(=O)OC[C@H]2Oc3ccc([C@H]4Oc5cc(O)cc(O)c5C(=O)[C@@H]4O)cc3O[C@@H]2c2ccc(O)c(OC)c2)ccc1O [Compound 3, bis(((2R,3R)-3-(4-Hydroxy-3-methoxyphenyl)-6-((2R,3R)-3,5,7-trihydroxy-4-oxochroman-2-yl)-2,3-dihydrobenzo[b][1,4]dioxin-2-yl)methyl) dodecanedioate] | 23.5 ± 5.6 | 137 ± 7.5 | 7.1 ± 2.8 ^a % | 8 to 44 | 0.56 | 0.83 | strictly limited and practically impossible | 51.8 ± 5.9 | 34 ± 4.3 | > 200 | 7.6 ± 1.9 |  | approximately 1.6 times |
| COc1cc([C@H]2Oc3cc([C@H]4Oc5cc(OCc6ccc(COc7cc(O)c8c(c7)O[C@H](c7ccc9c(c7)O[C@H](c7ccc(O)c(OC)c7)[C@@H](CO)O9)[C@@H](O)C8=O)cc6)cc(O)c5C(=O)[C@@H]4O)ccc3O[C@@H]2CO)ccc1O [Compound 8, (2R,2'R,3R,3'R)-7,7'-((1,4-Phenylenebis(methylene))bis(oxy))bis(3,5-dihydroxy-2-((2R,3R)-3-(4-hydroxy-3-methoxyphenyl)-2-(hydroxymethyl)-2,3-dihydrobenzo[b][1,4]dioxin-6-yl)chroman-4-one)] |  |  | 8.5 ± 3.7 ^a % |  | 0.56 | 0.81 |  |  |  |  |  |  |  |
